Patent US20240416143A1, “PHOTONIC ANTIMICROBIAL WOUND SURFACE DRESSING” (The General Hospital Corporation, priority 2021, published 2024)
Read-outs that look alike come from different tables or passages of the source.

Tests used:
[1] = UV-Vis absorption spectroscopy of menadione; type: physicochemical
Protocol: Stock solutions of menadione (10 mg/mL) were prepared in DMSO only and in DMSO/Tween (1:1) to improve the solubility. Different concentrations of menadione were prepared to make a calibration curve by diluting the stock solution in PBS so that the final solution was either 1% DMSO or 1% DMSO/Tween. The absorbance spectra were measured using an Evolution™ 300 UV-Vis Spectrophotometer (Thermo Scientific, Waltham, Massachusetts, USA). The calibration curve was measured, and molar absorption coefficient calculated.
(§1) Thus, we dissolved the menadione in two conditions: in PBS containing either 1% DMSO or 1% DMSO/Tween80 at 400 μM. Tween 80 is a surfactant and the idea is to mix with the DMSO before to add to PBS is due to necessity to improve the solubility of menadione in aqueous solution. We measured the absorption spectrum in both conditions to analyze if there is any change in optical properties. The range of wavelength absorption of menadione was measured between 200-800 nm (see FIG. 12B) to choose the optimum wavelength of the light absorption spectra. […] The maximum wavelength of absorption found was 340 nm for both conditions. […] The molar absorptivity coefficient was compared in different wavelength according with the Table 1.

[2] = Solubility of menadione in aqueous solution; type: physicochemical
Protocol: as §1

E. coli [3] = test: MIC of menadione by broth microdilution, with or without aBL; type: cell-based, Escherichia coli ATCC 25922
Protocol: The MICs of menadione in different bacterial strains were determined by a standard broth microdilution assay according to the Clinical and Laboratory Standards Institute. Briefly, menadione was prepared at 100 mg/mL in Tween 80/DMSO (1:1) as a stock solution. The stock solution was diluted to 2048 μg/mL in BHI and then serial dilutions were performed to 1024-0.015 μg/mL in a 96-well plate. Then, a 10 μL stationary growth-phase culture of 10^8 CFU/mL bacteria in BHI broth was added to the 96-well plate containing the serial dilutions of menadione. The medium containing a similar amount of Tween 80/DMSO (1:1) served as a control. The microplates were incubated at 37° C. for 24 hours and the lowest concentration of the compound capable of completely inhibiting bacterial growth was referred to as the MIC.
However, we investigated the effects of aBL (50 mW/cm^2) in potentiating the antibacterial activities of menadione in the three strains of bacteria. […] The highest fluence that we investigated was 125 J/cm^2, when we irradiated the bacteria for 42 minutes.

E. coli [4] = test: Photoinactivation of planktonic cultures by menadione + antimicrobial blue light; type: cell-based, Escherichia coli ATCC 25922; conditions: menadione ⅛ MIC + aBL 90 J/cm^2 (50 mW/cm^2), 405 nm
Protocol: The bacterial cells were grown in BHI broth medium shaken overnight. Cells were collected by centrifugation at 4,000 rpm for 5 minutes and suspended in PBS at a density of 10^8 colony-forming units (CFU)/mL (estimated by measuring the optical density at 600 nm; O.D 0.1=10^8 cells/mL). The microbial suspension in PBS was transferred to a 35×12-mm dish and mixed with different concentrations of menadione: 0, 0.5, 1 and 2 μg/mL for MRSA USA300, AF003 and IQ0064; 0, 1, 10 and 30 μg/mL for P. aeruginosa PA01; and 0, 16, 32, 64 and 128 μg/mL for E. coli ATCC 25922. After incubation in the dark at 25° C. for 1 hour, the planktonic suspension of cells at room temperature was irradiated using aBL (405 nm) at 50 mW/cm^2 with different radiant exposures (0-250 J/cm^2). During the aBL irradiation, 40 μL of samples were withdrawn every 15 minutes, and the CFUs were determined by 10-fold serial dilutions in PBS (10-1 to 10-7 dilution factors), plated on BHI agar plates as described previously [Ref. 17]. CFUs were counted after overnight incubation at 37° C. Experiments were performed in triplicate.

MRSA = test: Hydroxyl radical assay (HPF) in bacteria; type: cell-based, methicillin-resistant Staphylococcus aureus; conditions: 10 μg/mL menadione, 135 J/cm^2
Protocol: 1.2.9.3 Hydroxyl radical HO′ assay: The hydroxyl radical was measured by 3′-(p-hydroxyphenyl) fluorescein (HPF) (Thermofisher). HPF is a new fluorescein derivative, and it is nonfluorescent until reacted with the hydroxyl radical or peroxynitrite anion. The MRSA were grown in BHI broth medium with shaking overnight. Cells were collected by centrifugation at 4,000 rpm for 5 minutes and resuspended in PBS in the stationary growth phase culture of 1×10^8 CFU/mL. The microbial suspension was transferred to a 35×12-mm dish, mixed with 10 μg/mL of menadione, and stained with 10 μM HPF solution per the manufacturer's instruction. The bacteria were irradiated with the blue light at 50 mW/cm^2 and the samples were collected each 15 minutes to be analyzed by Microplate Spectrofluorometer (SPECTRAmax®, Molecular Devices, USA) at λex=490 nm and λem=515 nm. The control and the menadione/dark groups were generated under the same conditions without irradiation.

With `CC1=CC(=O)c2ccccc2C1=O` [menadione, 2-methyl-1,4-naphthoquinone] the “maximum wavelength of absorption” value ([1]; 400 μM in PBS with 1% DMSO or 1% DMSO/Tween80, both conditions) was 340 nm, the “ε, molar absorptivity coefficient, λ = 340 nm” value ([1]; 1% DMSO in PBS) was 2458 L/mol/cm and the “ε, molar absorptivity coefficient, λ = 380 nm” value ([1]; 1% DMSO in PBS) was 572.1 L/mol/cm. The “ε, molar absorptivity coefficient, λ = 405 nm” value ([1]; 1% DMSO in PBS) was 128.82 L/mol/cm, the “ε, molar absorptivity coefficient, λ = 340 nm” value ([1]; 1% DMSO/Tween in PBS) was 2064 L/mol/cm and the “ε, molar absorptivity coefficient, λ = 380 nm” value ([1]; 1% DMSO/Tween in PBS) was 410.31 L/mol/cm. The “ε, molar absorptivity coefficient, λ = 405 nm” value ([1]; 1% DMSO/Tween in PBS) was 113.85 L/mol/cm, the “solubility in aqueous solution” value ([2]; PBS with 1% DMSO/Tween80 vs 1% DMSO) was “best solubility” and the solubility in water ([2]; water) was “not soluble in water”. The MIC (E. coli [3]; Escherichia coli, light or radiation study, 5 min, aBL 15.62 J/cm^2 (5 mins.), 50 mW/cm^2, read-out: MIC) was 256 µg/mL, the MIC (E. coli [3]; Escherichia coli, light or radiation study, 0.175 h, aBL 31.25 J/cm^2 (10.5 mins.), 50 mW/cm^2, read-out: MIC) was 256 µg/mL and the MIC (E. coli [3]; Escherichia coli, light or radiation study, 0.35 h, aBL 62.5 J/cm^2 (21 mins.), 50 mW/cm^2, read-out: MIC) was 4 µg/mL. For the same molecule, the MIC (E. coli [3]; Escherichia coli, light or radiation study, 0 J/cm^2 (Dark), read-out: MIC) was 512 µg/mL, the MIC (E. coli [3]; aBL 125 J/cm^2 (42 mins.), 50 mW/cm^2) was “completely eradicated” and the “eradication by aBL combined with menadione” value (E. coli [4]) was 6 log10. For the same molecule, the “hydroxyl radical (HPF), menadione+aBL vs aBL alone” value (MRSA) was 1.77 times.
